In experiment [1] the test system is Right cardiac atrium. In words: Negative […] activity in electrically-paced Cavia porcellus (guinea pig) right atrium assessed as effect on force measured after 60 min by isometric transducer analysis in absence of benextramine/4-DAMP mustard. The format is functional, tissue-based. The settings on record: 1 h.
Experiment [2] has as its system Right cardiac atrium. In words: Negative […] activity in electrically-paced Cavia porcellus (guinea pig) right atrium assessed as effect on force measured after 60 min by isometric transducer analysis in presence of benextramine/4-DAMP mustard relative to N-dodecyl lysine amide. It counts as functional.
The test system of experiment [3] is Right cardiac atrium. Briefly: Negative ionotropic activity in electrically-paced Cavia porcellus (guinea pig) right atrium measured after 60 min by isometric transducer analysis in presence of pimozide. It counts as functional, tissue-based.
Experiment [4] has as its target T1, Muscarinic acetylcholine receptor M4 (Homo sapiens) (UniProt P08173).
T1 sequence (whole entry): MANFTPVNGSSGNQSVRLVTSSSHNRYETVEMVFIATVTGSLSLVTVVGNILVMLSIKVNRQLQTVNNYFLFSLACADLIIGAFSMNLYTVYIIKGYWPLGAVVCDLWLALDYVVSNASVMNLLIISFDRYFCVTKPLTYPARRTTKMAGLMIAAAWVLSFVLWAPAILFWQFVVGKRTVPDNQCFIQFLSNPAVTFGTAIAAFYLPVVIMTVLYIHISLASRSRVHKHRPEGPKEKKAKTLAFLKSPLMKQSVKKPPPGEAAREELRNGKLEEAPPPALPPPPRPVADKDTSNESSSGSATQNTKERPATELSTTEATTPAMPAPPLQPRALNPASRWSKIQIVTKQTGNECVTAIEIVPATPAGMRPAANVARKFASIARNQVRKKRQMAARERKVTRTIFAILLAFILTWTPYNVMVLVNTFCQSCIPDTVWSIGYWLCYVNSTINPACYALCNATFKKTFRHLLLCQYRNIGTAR
Briefly: Binding affinity to Homo sapiens (human) recombinant muscarinic M4 receptor expressed in CHO cells assessed as [35S]GTPgammaS binding. It counts as functional, cell-based. On the technique in general: GTPγS resists hydrolysis and so accumulates on activated G proteins.

The subject of experiment [5] is Right cardiac atrium. In words: Negative […] activity in electrically-paced Cavia porcellus (guinea pig) right atrium assessed as effect on force measured after 60 min by isometric transducer analysis in absence of benextramine/4-DAMP mustard relative to N-dodecyl lysine amide. The format is functional.
In experiment [6] the target is T2, Muscarinic acetylcholine receptor M5 (Homo sapiens) (UniProt P08912).
T2 sequence (whole entry): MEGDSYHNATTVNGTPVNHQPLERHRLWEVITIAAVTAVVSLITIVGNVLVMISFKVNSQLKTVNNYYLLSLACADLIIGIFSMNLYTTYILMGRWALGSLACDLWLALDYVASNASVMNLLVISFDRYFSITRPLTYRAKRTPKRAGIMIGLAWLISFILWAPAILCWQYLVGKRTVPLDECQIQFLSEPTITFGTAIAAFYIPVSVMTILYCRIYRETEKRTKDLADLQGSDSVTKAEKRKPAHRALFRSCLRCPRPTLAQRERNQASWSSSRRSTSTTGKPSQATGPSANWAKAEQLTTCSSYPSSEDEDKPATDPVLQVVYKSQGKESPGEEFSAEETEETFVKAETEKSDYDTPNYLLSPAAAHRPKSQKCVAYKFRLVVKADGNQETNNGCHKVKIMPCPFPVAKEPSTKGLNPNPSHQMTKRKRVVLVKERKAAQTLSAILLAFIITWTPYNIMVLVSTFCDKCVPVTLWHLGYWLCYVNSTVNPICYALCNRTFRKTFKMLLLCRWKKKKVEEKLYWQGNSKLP
Briefly: Binding affinity to Homo sapiens (human) recombinant muscarinic M5 receptor expressed in CHO cells assessed as [35S]GTPgammaS binding. It counts as functional, cell-based.

Experiment [7] concerns Left cardiac atrium. In words: Negative ionotropic activity in electrically-paced Cavia porcellus (guinea pig) left atrium measured after 60 min by isometric transducer analysis in absence of benextramine/4-DAMP mustard relative to N-dodecyl lysine amide. It counts as functional.
Experiment [8] addresses Muscarinic acetylcholine receptor M3 (Homo sapiens) (UniProt P20309). Briefly: Allosteric modulation of Homo sapiens (human) recombinant muscarinic M3 receptor expressed in CHO cells assessed as inhibition of carbachol-induced [35S]GTPgammaS binding. It counts as functional, cell-based.
Experiment [9] has as its system Right cardiac atrium. Briefly: Negative ionotropic activity in electrically-paced Cavia porcellus (guinea pig) right atrium measured after 60 min by isometric transducer analysis in presence of benzalkonium. It counts as functional, tissue-based.
Experiment [10] addresses T2, Muscarinic acetylcholine receptor M5 (Homo sapiens). In words: Allosteric modulation of Homo sapiens (human) recombinant muscarinic M5 receptor expressed in CHO cells assessed as inhibition of carbachol-induced [35S]GTPgammaS binding. It counts as functional, cell-based.
Experiment [11] has as its system Right cardiac atrium. Briefly: Reversible negative ionotropic activity in electrically-paced Cavia porcellus (guinea pig) right atrium incubated for 30 min followed by compound-washout measured after 3 hr by isometric transducer analysis. The format is functional, tissue-based.
Experiment [12] deals with Left cardiac atrium. Briefly: Negative ionotropic activity in electrically-paced Cavia porcellus (guinea pig) left atrium measured after 60 min by isometric transducer analysis in absence of benextramine/4-DAMP mustard. It counts as functional, tissue-based. As to conditions: 1 h.
Experiment [13] relates to Right cardiac atrium. Briefly: Negative ionotropic activity in electrically-paced Cavia porcellus (guinea pig) right atrium measured after 60 min by isometric transducer analysis in presence of AM 630. The format is functional, tissue-based.
Experiment [14] has as its system Right cardiac atrium. Briefly: Negative ionotropic activity in electrically-paced Cavia porcellus (guinea pig) right atrium measured after 60 min by isometric transducer analysis in presence of naloxane. It counts as functional, tissue-based.
Experiment [15] relates to Left cardiac atrium. Briefly: Negative ionotropic activity in electrically-paced Cavia porcellus (guinea pig) left atrium measured after 60 min by isometric transducer analysis in presence of benzalkonium. It counts as functional, tissue-based.
Experiment [16] relates to Left cardiac atrium. In words: Negative ionotropic activity in electrically-paced Cavia porcellus (guinea pig) left atrium measured after 60 min by isometric transducer analysis in presence of thioperamide. The format is functional, tissue-based.
Experiment [17] has as its target T1, Muscarinic acetylcholine receptor M4 (Homo sapiens). In words: Allosteric modulation of Homo sapiens (human) recombinant muscarinic M4 receptor expressed in CHO cells assessed as inhibition of carbachol-induced [35S]GTPgammaS binding. The format is functional, cell-based.
In experiment [18] the test system is Left cardiac atrium. In words: Negative ionotropic activity in electrically-paced Cavia porcellus (guinea pig) left atrium measured after 60 min by isometric transducer analysis in presence of dihydroergocristine. It counts as functional, tissue-based.
Experiment [19] concerns the target T3, Muscarinic acetylcholine receptor M2 (Homo sapiens) (UniProt P08172).
T3 sequence (whole entry): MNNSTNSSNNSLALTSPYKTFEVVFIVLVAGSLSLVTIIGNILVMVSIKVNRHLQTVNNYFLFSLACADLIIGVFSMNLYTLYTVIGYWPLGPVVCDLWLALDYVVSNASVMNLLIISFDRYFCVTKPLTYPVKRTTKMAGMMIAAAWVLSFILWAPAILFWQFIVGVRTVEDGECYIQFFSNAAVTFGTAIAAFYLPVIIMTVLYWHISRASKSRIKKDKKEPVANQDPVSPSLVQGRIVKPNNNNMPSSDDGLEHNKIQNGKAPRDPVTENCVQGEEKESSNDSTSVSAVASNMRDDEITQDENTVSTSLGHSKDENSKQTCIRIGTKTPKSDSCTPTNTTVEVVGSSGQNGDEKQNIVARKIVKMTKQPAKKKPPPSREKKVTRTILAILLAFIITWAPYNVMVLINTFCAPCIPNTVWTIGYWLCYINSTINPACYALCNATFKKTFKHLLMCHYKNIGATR
In words: Allosteric modulation of Homo sapiens (human) recombinant muscarinic M2 receptor expressed in CHO cells assessed as inhibition of N-[3H]methylscopalamine dissociation incubated at 1 hr post N-[3H]methylscopalamine addition measured after 5 min by filter binding assay. The format is cell-based.

Experiment [20] deals with Right cardiac atrium. In words: Negative ionotropic activity in electrically-paced Cavia porcellus (guinea pig) right atrium measured after 60 min by isometric transducer analysis in presence of DPCPX. The format is functional, tissue-based.

From ChEMBL document CHEMBL3044753, “Polyamines May Modulate Both G Protein-Coupled Receptors and G Proteins” (Med Chem Res, 2004) come the findings set out here.

The source made the active and inactive calls. The rule behind the calls is not given here.

Broadly, the EC50 is the concentration needed to bring the measured effect to its halfway point.

Sequence of Muscarinic acetylcholine receptor M3 (Homo sapiens) (P20309 whole entry, looked up): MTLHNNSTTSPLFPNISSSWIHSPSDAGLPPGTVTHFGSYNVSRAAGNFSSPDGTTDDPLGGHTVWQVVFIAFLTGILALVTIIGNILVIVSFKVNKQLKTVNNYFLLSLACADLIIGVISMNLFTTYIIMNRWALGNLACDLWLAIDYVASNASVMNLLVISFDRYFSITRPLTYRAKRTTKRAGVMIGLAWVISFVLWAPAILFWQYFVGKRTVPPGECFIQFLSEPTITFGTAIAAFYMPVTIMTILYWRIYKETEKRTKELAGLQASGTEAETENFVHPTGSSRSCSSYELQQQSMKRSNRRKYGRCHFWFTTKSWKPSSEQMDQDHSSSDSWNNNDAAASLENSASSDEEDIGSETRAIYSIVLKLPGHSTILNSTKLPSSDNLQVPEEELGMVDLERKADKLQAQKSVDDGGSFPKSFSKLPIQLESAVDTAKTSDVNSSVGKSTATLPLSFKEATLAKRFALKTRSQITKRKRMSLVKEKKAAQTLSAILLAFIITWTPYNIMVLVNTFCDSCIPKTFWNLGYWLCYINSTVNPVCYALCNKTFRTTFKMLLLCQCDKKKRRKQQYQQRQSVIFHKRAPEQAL

Turning to `COc1ccccc1CN1CCC(C2CCN(C(=O)CCCCCCC(=O)N3CCC(C4CCN(Cc5ccccc5OC)CC4)CC3)CC2)CC1` [PIPERTRAMINE AMIDE], the 50% effective concentration (EC50) with Right cardiac atrium [1] is 3.89 nM; in the experiment on Left cardiac atrium [12], 3.09 nM. For the same molecule, the Efficacy was determined as 82% with Right cardiac atrium [2], 78% in the experiment on Right cardiac atrium [5] and 90% with Left cardiac atrium [7]. Moreover, the outcome (with Right cardiac atrium [3]; in experiment [8]; in [10]; in the experiment on Right cardiac atrium [13]; with Right cardiac atrium [14]; in the experiment on Left cardiac atrium [16]) was Active. Further, the result (in [17]; in the experiment with Left cardiac atrium [18]; in the experiment with Right cardiac atrium [20]) was Active. In addition, the outcome (in experiment [4]; in [6]; in the experiment with Right cardiac atrium [9]; in the experiment on Right cardiac atrium [11]; with Left cardiac atrium [15]) was inactive. The INH in experiment [19] worked out at 1.71 µM.
For the molecule `COc1ccccc1CN1CCC(C2CCN(CCCCCCCCN3CCC(C4CCN(Cc5ccccc5OC)CC4)CC3)CC2)CC1` [PIPERTRAMINE], the EC50 in the experiment with Right cardiac atrium [1] was 0.275 nM; in the experiment with Left cardiac atrium [12], 0.2 nM. For the same molecule, the results for the Efficacy in the experiment on Right cardiac atrium [2], with Right cardiac atrium [5] and in the experiment with Left cardiac atrium [7] were 72%, 71% and 96%, respectively. The result (with Right cardiac atrium [3]; in experiment [8]; in [10]; in the experiment on Right cardiac atrium [13]; with Right cardiac atrium [14]; in the experiment on Left cardiac atrium [16]) was Active. The result (in experiment [17]; in the experiment on Left cardiac atrium [18]; in the experiment on Right cardiac atrium [20]) was Active. Besides, the outcome (in experiment [4]; in [6]; with Right cardiac atrium [9]; in the experiment with Right cardiac atrium [11]; in the experiment with Left cardiac atrium [15]) was inactive. Also, the INH in experiment [19] stood at 1.57 µM.
